Reference: patent publication US20230028658A1, “EXPANDED DOSAGE REGIMENS FOR INTEGRIN INHIBITORS” (Pliant Therapeutics, Inc., priority 2021, published 2023)

How the values were obtained:
lung Col1a1 expression = assay: Precision cut lung slices, chronic bleomycin, comparison with nintedanib and pirfenidone (Example B10); assay type: cell-based, Mice (C57BL/6); conditions: chronic bleomycin PCLS, 7 days culture, vs DMSO vehicle; FIG. 6A
Protocol: Mice (C57BL/6) were administered 3 U/kg of bleomycin (Teva Pharmaceuticals; North Wales, Pa.) on Day 0 and 1 U/kg of bleomycin on days 14, 28, 42 and 56 via oropharyngeal aspiration while under anesthesia. At day 70, 14 days following the final bleomycin insult, precision cut lung slices were obtained. Following euthanization, 2% low gelling temp agarose was injected into the mouse lungs via the trachea. […] The lobes were then subjected to precision slicing to obtain samples for culture using a microtome (Compresstome VF-300-0Z, Precisionary; Greenville, N.C.). Individual slices were distributed in a multiwell culture plate and cultured for 7 days under control (DMSO) and test compound conditions. The viability of the slices over the course of culturing was confirmed by WST-1 assay of mitochondrial activity.
During the culture period, slices in the control group were treated with DMSO and slices in the test group were treated with a DMSO solution of one of: compound 5; nintedanib; pirfenidone; a combination of nintedanib and compound 5; a combination of pirfenidone and compound 5; or the small molecule ALK5 inhibitor. Compound 5 was […] effective to equal or exceed its respective IC50 values at αvβ6 and αvβ1. […] Nintendanib and pirfenidone were analyzed at concentrations 10× their reported therapeutic concentrations.

[1] = Single dose pharmacokinetics (SAD), Example B14; assay type: in vivo, human; conditions: for half-life / Cmax / AUC(0-t) / Tmax: human, oral; for half-life: plasma total drug; for half-life / Cmax / AUC(0-t): geometric mean; for Cmax / AUC(0-t) / Tmax: plasma; for AUC(0-t): read-out: AUC0-24, ng × h/mL; for Tmax: median
Description: (§1) Accordingly, a study was designed to assess the PK of Compound 5 after a single dose and following a 6-day course of doses, at levels exceeding the dosages used in preceding Examples B12 and B13. This study was designed to assess at these higher doses aspects of the single-dose and steady-state pharmacokinetics of Compound 5.
(§2) This study was a single-center, randomized, double-blind, ascending dose, placebo-controlled study in healthy participants. Each cohort included 10 participants (8 active, 2 placebo). Study participants received single ascending doses (SAD) of Compound 5 of 120, 160, 240, 320, 480, and 640 mg and multiple ascending doses (MAD) of Compound 5 of 80, 120, 160, 240, and 320 mg. Two cohorts of participants at 160 mg were studied in the MAD phase of the study.
Participants received single Compound 5 doses of 120, 160, 240, 320, 480, and 640 mg. A total of 60 participants were enrolled across the dosing groups, with 48 participants who received Compound 5 available for PK analyses. Despite the substantially higher dosages, PK parameters in the dosing groups were consistent with those observed at lower doses in Example B12.

[2] = Multiple dose pharmacokinetics (MAD), Example B14; assay type: in vivo; conditions: human, plasma, oral; for AUC(0-t): read-out: AUC0−24, ng × h/mL; for Tmax: median
Description: as §1, §2
Participants received 7 daily doses of Compound 5 80, 120, 160, 240, and 320 mg. A total of 60 participants were enrolled across the dosing groups, with 48 participants who received Compound 5 available for PK analyses. One participant discontinued study drug prior to completing all study procedures. […] Despite the substantially higher dosages, the PK parameters in the dosing groups were consistent with those observed at lower doses in Example B12. Following multiple doses of Compound 5 (oral solution) ranging from 80 to 320 mg QD, median plasma Compound 5 concentrations reached maximum levels after 3 to 4 hours. Geometric mean T1/2 remained relatively unchanged with increasing dose, ranging from 36 to 55 hours.

[3] = test system: IPF-derived lung fibroblasts; assay: cell adhesion in IPF-derived lung fibroblasts (FIG. 3B); assay type: cell-based
[4] = test system: human bronchial epithelial cells; assay: LAP adhesion binding assay, normal human bronchial epithelial cells (xCELLigence cell index); assay type: cell-based; conditions: FIG. 3A; cell index (electrical impedance)
Protocol: Two latency associated peptide (LAP) adhesion binding assays were devised using primary human lung cells, including normal (healthy) human bronchial epithelial cells and human lung fibroblasts (healthy and IPF).
Human bronchial epithelial cells are known to express αvβ6 integrin in culture. Human bronchial epithelial cells were prepared for the assay by dissociation with trypsin/EDTA and were then seeded at 20,000 cells per well on 96 well plates (ACEA Bioscience E-plate View, Acea Biosciences; San Diego, Calif.) previously coated with 5 μg/ml of recombinant human LAP (R&D Systems; Minneapolis, Minn.) and blocked with 4% bovine serum albumin. Cell index (electrical impedance) was measured to assess cell attachment/spreading every 3 minutes for 24 hours at 37° C./5% CO2 using the xCELLigence RTCA MP Instrument (Acea Biosciences; San Diego, Calif.).

[5] = 80 mg daily, Day 7, geometric mean
[6] = 120 mg daily, Day 7, geometric mean
[7] = 160 mg daily, Day 7, two cohorts pooled, geometric mean
[8] = 240 mg daily, Day 7, geometric mean
[9] = 320 mg daily, Day 7, geometric mean

COCCN(CCCCc1ccc2c(n1)NCCC2)CC[C@H](Nc1ncnc2ccccc12)C(=O)O [Compound 5, (S)-4-((2-methoxyethyl) (4-(5,6,7,8-tetrahydro-1,8-naphthyridin-2-yl)butyl)amino)-2-(quinazolin-4-ylamino) butanoic acid]
lung slice Col1a1 expression (lung Col1a1 expression): substantial, statistically significant (p<0.01 vs vehicle) decrease | half-life ([1]; single dose 120 mg): 37 h | half-life ([1]; single dose 160 mg): 36.5 h | half-life ([1]; single dose 240 mg): 46 h | half-life ([1]; single dose 320 mg): 40.7 h | half-life ([1]; single dose 480 mg): 43.7 h | half-life ([1]; single dose 640 mg): 42.3 h | Cmax ([1]; single dose 120 mg): 2.71 µg/mL | AUC(0-t) ([1]; single dose 120 mg): 27.4 µg·h/mL | Tmax ([1]; single dose 120 mg): 4 h | Cmax ([1]; single dose 160 mg): 2.48 µg/mL | AUC(0-t) ([1]; single dose 160 mg): 28.5 µg·h/mL | Tmax ([1]; single dose 160 mg): 1.95 h | Cmax ([1]; single dose 240 mg): 4.39 µg/mL | AUC(0-t) ([1]; single dose 240 mg): 48.1 µg·h/mL | Tmax ([1]; single dose 240 mg): 3.5 h | Cmax ([1]; single dose 320 mg): 6.39 µg/mL | AUC(0-t) ([1]; single dose 320 mg): 71.2 µg·h/mL | Tmax ([1]; single dose 320 mg): 4 h | Cmax ([1]; single dose 480 mg): 5.08 µg/mL | AUC(0-t) ([1]; single dose 480 mg): 57.3 µg·h/mL | Tmax ([1]; single dose 480 mg): 3 h | Cmax ([1]; single dose 640 mg): 6.91 µg/mL | AUC(0-t) ([1]; single dose 640 mg): 88.3 µg·h/mL | Tmax ([1]; single dose 640 mg): 3.5 h | dose proportionality of total and peak exposures ([1]; single doses over the range of 120 to 640 mg): slightly less than dose-proportional manner | dose proportionality of total (AUC0-24) and peak (Cmax) exposure ([1]; single oral doses of 120 to 320 mg): increased in a dose-proportional manner | Cmax [2, 5]: 1.85 µg/mL | AUC(0-t) [2, 5]: 19.2 µg·h/mL | half-life ([2]; 80 mg daily, Day 7, geometric mean, read-out: T1/2 (converted)): 36.1 h | Tmax ([2]; 80 mg daily, Day 7): 3.5 h | Cmax [2, 6]: 4.04 µg/mL | AUC(0-t) [2, 6]: 49.4 µg·h/mL | half-life ([2]; 120 mg daily, Day 7, geometric mean, read-out: T1/2 (converted)): 55.4 h | Tmax ([2]; 120 mg daily, Day 7): 4.03 h | Cmax [2, 7]: 3.79 µg/mL | AUC(0-t) [2, 7]: 49.4 µg·h/mL | half-life ([2]; 160 mg daily, Day 7, two cohorts pooled, geometric mean, read-out: T1/2 (converted)): 41.7 h | Tmax ([2]; 160 mg daily, Day 7, two cohorts pooled): 3 h | Cmax [2, 8]: 5.14 µg/mL | AUC(0-t) [2, 8]: 63 µg·h/mL | half-life ([2]; 240 mg daily, Day 7, geometric mean, read-out: T1/2 (converted)): 50.5 h | Tmax ([2]; 240 mg daily, Day 7): 3 h | Cmax [2, 9]: 5.73 µg/mL | AUC(0-t) [2, 9]: 74.5 µg·h/mL | half-life ([2]; 320 mg daily, Day 7, geometric mean, read-out: T1/2 (converted)): 46 h | Tmax ([2]; 320 mg daily, Day 7): 3.56 h | half-life ([2]; multiple doses 80 to 320 mg QD, read-out: Geometric mean T1/2): 36 to 55 h | cell adhesion in the IPF-derived lung fibroblasts [3]: substantially inhibited | inhibition of normal bronchial epithelial cell adhesion to LAP [4]: substantially inhibited
